In ChEMBL document CHEMBL5608198 (Eur J Med Chem, 2024):
Activity calls are given as the source filed them. The rule behind the calls is not given here.

Tested on: PBMC
Test: Effect on cell proliferation of human PBMC into human Vgamma9Vdelta2 T cells assessed as decrease in HMBPP response upto 100 uM incubated for 3 days followed by compound washout with recurrent addition of IL-2 on every 3 days measured after 11 days in presence of HMBPP by flow cytometry
Type: functional, cell-based
Details: time 3.0 day

| SMILES | Activity |
| --- | --- |
| O=P(O)(O)OP(=O)(O)OC/C=C(/CO)Cc1ccc(Br)cc1 | Active |
| O=P(O)(O)OP(=O)(O)OC/C=C(/CO)Cc1ccccc1 | Active |
| Cc1ccc(C/C(=C\COP(=O)(O)OP(=O)(O)O)CO)cc1 | Active |
